The values that follow come from patent US11542492B2 (Celgene CAR LLC, priority 2009, dated 2023).

The target of assay [1] is T1, HCV NS3/4A 1b protease enzyme (wild type) (Hepatitis C virus genotype 1b, UniProt P26663).
T1 construct: 10× stocks of NS3/4A protease enzyme from Bioenza (Mountain View, Calif.); purchased Bioenza
Description: HCV protease FRET assay (IC50_APP), wild type NS3/4A 1b. It counts as biochemical. Put shortly:
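Wild-type NS3/4A 1b protease with serially diluted compounds (from 50% DMSO stocks); reaction started at once with FRET substrate and followed 60-90 min at ex485/em520. Initial velocities (0 to 15+ min) normalised to no-inhibitor and no-enzyme controls; apparent IC50 from variable-slope log[inhibitor]-response fit.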

The target in assay [2] is T2, HCV NS3 protease WT 1b (Hepatitis C virus genotype 1b, UniProt P26663).
T2 construct: The single-chain proteolytic domain (NS4A21-32-GSGS-NS33-631) was cloned into pET-14b; His tag (own knowledge of vector pET-14b); made in house; host or cells: Escherichia coli BL21
Description: MALDI MS of intact HCV protease 1b WT incubated with compound. The assay is classed as binding. On the procedure:
Intact HCV (protease) 1bWT was incubated for 1 hr at a 10× fold excess of XVI-26 to protein. 3 ul aliquots of the samples were diluted with 10 ul of 0.1% TFA prior to micro C4 ZipTipping directly onto the MALDI target using Sinapinic acid as the desorption matrix (10 mg/mL in 0.1% TFA:Acetonitrile 50:50). […] Due to likely protein misfolding during protein purification, a small portion of the misfolded protein was not modified.
In order to determine whether the modification of the protein occurred at lysine, the pH from the above experiment was increased from 7.4 to 10.0. Because the compound lysine adduct would be an amide any increase in pH would have minimal effect on the modified protein. If however, the modification occurred at cysteine the resultant thioester bond would be unstable and the compound would hydrolyze off the protein.
(§1) Intact HCV (protease) 1bWT, C159S, and C159S/K136A were incubated for 1 hr at a 10× fold excess of XVI-26 to protein. 3 μl aliquots of the samples were diluted with 10 μl of 0.1% TFA prior to micro C4 ZipTipping directly onto the MALDI target using Sinapinic acid as the desorption matrix (10 mg/mL in 0.1% TFA:Acetonitrile 50:50).
Intact HCV (protease) WT1b was incubated for 1 hr at a 10× fold excess of XVI-1 (mw=782.87) to protein. 3 μl aliquots of the samples were diluted with 10 μl of 0.1% TFA prior to micro C4 ZipTipping directly onto the MALDI target using Sinapinic acid as the desorption matrix (10 mg/mL in 0.1% TFA:Acetonitrile 50:50). […] Due to some protein misfolding during the purification of the protein, the unfolded portion of the protein can not react with XVI-1.

Assay [3] concerns the target T3, HCV protease C159S mutant (Hepatitis C virus genotype 1b, UniProt P26663, C1185S).
T3 construct: The single-chain proteolytic domain (NS4A21-32-GSGS-NS33-631) was cloned into pET-14b; His tag (own knowledge of vector pET-14b); made in house; host or cells: Escherichia coli BL21
Description: MALDI MS of intact HCV protease C159S incubated with compound. It counts as binding. To be noted: 1 hr, 10× fold excess. Here is the method: as §1

Assay [4] has as its target T4, HCV C159S/K136A double mutant (Hepatitis C virus genotype 1b, UniProt P26663, C1185S/K1162A).
T4 construct: The single-chain proteolytic domain (NS4A21-32-GSGS-NS33-631) was cloned into pET-14b; His tag (own knowledge of vector pET-14b); made in house; host or cells: Escherichia coli BL21
Description: MALDI MS of intact HCV protease C159S/K136A double mutant. To be noted: 1 hr, 10× fold excess. It counts as binding. On the procedure:
as §1

Assay [5] relates to NS3/4A self-cleavage activity in Huh-7 cells. Description: Prolonged duration of action (washout), NS3 self-cleavage in transfected Huh-7 cells. The assay is classed as cell-based. The conditions noted are these: FIG. 11. On the procedure:
Parental Huh-7 cells were plated at a density of 1.75×10^6 cells per 100 mm dish in media with 10% FBS. The following day, cells were transfected in OptiMEM using 28 ug of plasmid and 112 ul of Lipfectamine 2000 (Invitrogen), according to manufacturer's instructions. After 4 hours incubation with the transfection complex, the media was changed to Replicon Assay Medium (RPMI supplemented with 5% FBS, 1× non-essential amino acids and pen/strep). The next morning, the cells were trypsinized, counted and replated in Replicon Media at a density of 20,000 cells/well of a 12 well plate (4 wells per genotype). Cells were allowed to adhere to the plate, then the media was removed and replaced with 1 ml media containing XVI-26, (3 wells per compound) and 0.02% DMSO and returned to the incubator overnight. Sixteen hours later 1 treated well from each genotype (0 hr sample) and 1 untreated well were washed with PBS, then lysed and scraped into 30 ul of Cell Extraction Buffer (Biosource, Camarillo, Calif.) plus Complete Protease Inhibitor (Roche, Indianapolis, Ind.). The remaining wells were rinsed 2× with PBS then fed with Replicon Media and returned to the incubator. […] Lysates were resolved using standard immunoblotting methods and NS3 self-cleavage activity was assessed and quantified relative to untreated samples.

Assay [6] deals with HCT116. Description: HCT116-WB assay. It counts as cell-based. The conditions noted are these: Homo sapiens, HCT-116; read-out: HCT116-WB Inhibition Designation.
For assay [7], the target named is PI3Kβ (Homo sapiens, UniProt P42338). Description: MALDI MS of intact PI3Kβ incubated with compound. The assay is classed as binding. The conditions noted are these: 3 hr, 10× fold excess of compound to protein. On the procedure: Intact PI3Kβ was incubated for 3 hr at a 10× fold access of compound to protein. 5 μL aliquots of the samples were diluted with 15 μL of 0.1% TFA prior to micro C4 ZipTipping directly onto the MALDI target using Sinapinic acid as the desorption matrix (10 mg/mL in 0.1% TFA:Acetonitrile 50:50). Spots were then analyzed via MALDI-MS. XXII-10 modified PI3Kβ 100% by 3h. XXII-8, XXII-6, XXIII-4, and XXIII-3 each provided between about 35% to about 55% modification.
Chain of PI3Kβ (P42338 whole entry): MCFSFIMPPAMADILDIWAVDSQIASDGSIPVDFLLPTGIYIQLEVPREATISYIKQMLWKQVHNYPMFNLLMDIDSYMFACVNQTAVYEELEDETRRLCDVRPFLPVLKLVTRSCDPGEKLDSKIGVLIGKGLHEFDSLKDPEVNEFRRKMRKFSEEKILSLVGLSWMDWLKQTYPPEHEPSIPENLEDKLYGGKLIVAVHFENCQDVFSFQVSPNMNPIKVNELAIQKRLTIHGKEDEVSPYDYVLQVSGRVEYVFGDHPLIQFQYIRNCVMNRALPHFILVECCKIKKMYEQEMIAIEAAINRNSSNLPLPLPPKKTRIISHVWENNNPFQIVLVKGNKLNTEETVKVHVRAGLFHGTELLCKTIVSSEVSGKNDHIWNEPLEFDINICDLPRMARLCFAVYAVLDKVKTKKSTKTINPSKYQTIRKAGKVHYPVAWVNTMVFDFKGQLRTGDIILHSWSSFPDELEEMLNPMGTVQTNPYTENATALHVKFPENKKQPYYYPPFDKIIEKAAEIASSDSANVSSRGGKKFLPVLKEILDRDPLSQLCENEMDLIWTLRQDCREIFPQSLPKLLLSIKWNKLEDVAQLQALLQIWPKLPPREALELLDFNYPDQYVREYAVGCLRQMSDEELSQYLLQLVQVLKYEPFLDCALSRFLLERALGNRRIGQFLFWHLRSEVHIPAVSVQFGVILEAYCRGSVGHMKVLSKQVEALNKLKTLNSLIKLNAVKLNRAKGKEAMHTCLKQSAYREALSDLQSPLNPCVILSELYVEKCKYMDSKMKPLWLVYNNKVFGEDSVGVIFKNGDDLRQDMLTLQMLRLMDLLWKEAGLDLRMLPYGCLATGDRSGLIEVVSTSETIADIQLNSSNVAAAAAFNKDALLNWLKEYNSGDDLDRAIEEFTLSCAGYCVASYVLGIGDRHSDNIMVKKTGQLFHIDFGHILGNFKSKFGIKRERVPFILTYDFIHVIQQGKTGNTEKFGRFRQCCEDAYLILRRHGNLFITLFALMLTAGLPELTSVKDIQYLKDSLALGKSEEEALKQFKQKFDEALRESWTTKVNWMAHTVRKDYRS
Chain of PI3Kβ (P27986 whole entry partner): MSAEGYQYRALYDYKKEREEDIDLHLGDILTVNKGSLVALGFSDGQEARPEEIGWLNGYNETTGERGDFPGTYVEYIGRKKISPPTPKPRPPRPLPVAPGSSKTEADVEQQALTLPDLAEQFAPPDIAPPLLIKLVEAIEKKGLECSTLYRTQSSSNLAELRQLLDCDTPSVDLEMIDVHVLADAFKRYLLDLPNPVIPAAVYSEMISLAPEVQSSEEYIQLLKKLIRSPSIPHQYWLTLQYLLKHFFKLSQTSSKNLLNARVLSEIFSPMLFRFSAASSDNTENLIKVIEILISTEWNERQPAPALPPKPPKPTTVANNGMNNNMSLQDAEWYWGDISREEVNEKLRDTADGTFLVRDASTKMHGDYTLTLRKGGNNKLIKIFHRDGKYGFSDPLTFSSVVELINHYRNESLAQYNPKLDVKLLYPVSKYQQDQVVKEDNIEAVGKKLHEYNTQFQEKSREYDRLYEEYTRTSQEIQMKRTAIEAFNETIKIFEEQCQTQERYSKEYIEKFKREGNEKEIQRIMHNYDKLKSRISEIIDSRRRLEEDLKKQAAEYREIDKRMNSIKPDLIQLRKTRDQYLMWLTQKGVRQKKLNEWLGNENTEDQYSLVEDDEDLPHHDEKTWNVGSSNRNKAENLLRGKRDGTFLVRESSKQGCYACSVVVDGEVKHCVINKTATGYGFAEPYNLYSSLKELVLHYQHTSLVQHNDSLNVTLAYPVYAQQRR

In the case of `C=C[C@@H]1C[C@]1(NC(=O)[C@@H]1CC(Oc2cc(-c3ccccc3)nc3cc(OC)ccc23)CN1C(=O)[C@H](CCC(=O)N1CCC1=O)NC(=O)OC(C)(C)C)C(=O)NS(=O)(=O)C1CC1` (some centres unmarked) [XVI-26], in assay [1], the IC50 is under 1 nM. In addition, the “stability of adduct at raised pH” value in assay [2] (1 hour at pH 7.4 followed by 2 hours at pH 10) is “did not come off of the protein”. Also, the “MS_HCVNS3_INTACT_NS3 WT 1b 1 HR” value in assay [2] (WT 1b, 1 HR) was “H (>50% and ≤70% modification)”. The “positive mass shift of HCV C159S” value in assay [3] is reported as 770 Da. In assay [4], the “modification of HCV C159S/K136A” value is recorded as “no modification”. For the same compound, in assay [5], the “duration of action after washout” value is recorded as “prolonged duration of action”.

With `C=CS(=O)(=O)N(C)Cc1cc2nc(-c3cccc(O)c3)nc(N3CCOCC3)c2s1` [XXII-10], the IC50 in assay [6] was in the range of 100 to 1000 nM. Moreover, the “modification of PI3Kβ” value in assay [7] worked out at 100%.
